Assay results: patent US12208146B2, “Reconstituted HDL nanoparticles for delivery of radioactive agents and uses thereof” (UNIVERSITY OF NORTH TEXAS HEALTH SCIENCE CENTER, priority 2018, dated 2025)

Tested on: PC3 cells
Test: Cell uptake experiments with and without SR-B1 blocking by unlabeled rHDL
Format: cell-based
Conditions: for total uptake: PC-3 cells
Procedure: PC3 cells were harvested and diluted in fresh medium (1×10^5 cells/well, 0.5 mL) and then seeded in 24-well tissue culture plates. After 24 h, the medium was removed, and the cells were incubated with 100 μL/well of phosphate buffered saline (PBS) and the following treatments per well: 2 kBq of ^99mTcO4−, and 30 μL of 1 μg/μL of ^99mTc-rHDL, ^99mTc-Liposome, and ^99mTc-HYNIC-DA for 45 min at 37° C. Then, cells were rinsed two times with 0.5 mL of ice-cold PBS. These two washes were combined and represent the ^99mTcO4^−, ^99mTc-rHDL, ^99mTc-Liposome, and ^99mTc-HYNIC-DA not bounded to cells. Cells were washed with 1 mL of PBS and later were incubated twice with 0.5 mL of Glycine-HCl (50 mM, pH 2.8). The Glycine-HCl washes were combined, these washed recovered the ^99mTcO4^−, ^99mTc-rHDL, ^99mTc-Liposome, and ^99mTc-HYNIC-DA adhered or bounded to cell membrane. Cells were washed with 1 mL of PBS, and finally were washed twice with 0.5 mL of 1.0 M NaOH (lysed cells) to recover the ^99mTcO4^−, ^99mTc-rHDL, ^99mTc-Liposome, and ^99mTc-HYNIC-DA internalized in the cytoplasm (washes were combined). Radioactivity was measured in the initial PBS, Glycine-HCl and NaOH combined washes using a NaI(Tl) detector (NML Inc. USA). The initial activity of each treatment was taken to represent 100% of activity. In parallel, the nonspecific binding was determined using 30 μL of 60 μg/μL of unlabeled rHDL, which blocked SR-B1 receptors on PC3 cells.

[O]=[99Tc](=[O])(=[O])[O-] [^99m TcO4^−]
total uptake (with SR-B1 blocking): 2.9% | total uptake (without SR-B1 blocking): 2.8% | incorporation into cells (control groups, data not shown): only marginal incorporation into cells
